Experimental data taken from the supplement of paper PMC10307832.

Key:
Assay in all cases: relative viability (nuclei count vs DMSO), 5 days (fraction); higher = more cells survive
NCI-H460 = system: NCI-H460
Procedure, shortened: (§1)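 Each reported value is a median over duplicate plates. It expresses relative viability: treated-well nuclei count divided by vehicle-well nuclei count. Lung cancer cell lines in 1536-well plates were dosed by pin tool a day after seeding, alone with one drug or with a fixed anchor-drug dose plus five library-drug doses (not always all listed) in √10 steps, and nuclei were counted after 5 days.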

NCI-H2126 = system: NCI-H2126
Procedure, shortened: as §1

LCLC-97TM1 = system: LCLC-97TM1
Procedure, shortened: as §1

HARA = system: HARA
Procedure, shortened: as §1

NCI-H23 = system: NCI-H23
Procedure, shortened: as §1

EMC-BAC-2 = system: EMC-BAC-2
Procedure, shortened: as §1

NCI-H1944 = system: NCI-H1944
Procedure, shortened: as §1

PC-3 [JPC-3] = system: PC-3 [JPC-3]
Procedure, shortened: as §1

NCI-H1792 = system: NCI-H1792
Procedure, shortened: as §1

NCI-H441 = system: NCI-H441
Procedure, shortened: as §1

NCI-H1793 = system: NCI-H1793
Procedure, shortened: as §1

NCI-H1437 = system: NCI-H1437
Procedure, shortened: as §1

NCI-H322M = system: NCI-H322M
Procedure, shortened: as §1

NCI-H522 = system: NCI-H522
Procedure, shortened: as §1

SW 900 = system: SW 900
Procedure, shortened: as §1

NCI-H1915 = system: NCI-H1915
Procedure, shortened: as §1

HCC-827 = system: HCC-827
Procedure, shortened: as §1

HCC-15 = system: HCC-15
Procedure, shortened: as §1

ChaGo-K-1 = system: ChaGo-K-1
Procedure, shortened: as §1

LU99A = system: LU99A
Procedure, shortened: as §1

EKVX = system: EKVX
Procedure, shortened: as §1

LC-2-ad = system: LC-2-ad
Procedure, shortened: as §1

H3255 = system: H3255
Procedure, shortened: as §1

SK-LU-1 = system: SK-LU-1
Procedure, shortened: as §1

NCI-H661 = system: NCI-H661
Procedure, shortened: as §1

Molecule `CCCCCCCCCCCC1=C(O)C(=O)C=C(O)C1=O` [Embelin] + Nc1nc2[nH]cc(CCc3ccc(C(=O)N[C@@H](CCC(=O)O)C(=O)O)cc3)c2c(=O)[nH]1 [Pemetrexed] (partner 0.2 µM) has a relative viability (NCI-H460; first compound 0.08 µM) of 0.0662, a relative viability (NCI-H460; first compound 0.8 µM) of 0.072 and a relative viability (NCI-H460; first compound 2.53 µM) of 0.0629. For the same molecule, the relative viability (NCI-H460; first compound 8 µM) was 0.0617, the relative viability (NCI-H2126; first compound 0.08 µM) was 0.735 and the relative viability (NCI-H2126; first compound 0.8 µM) was 0.636. For the same molecule, the relative viability (NCI-H2126; first compound 2.53 µM) was 0.654, the relative viability (NCI-H2126; first compound 8 µM) was 0.69 and the relative viability (LCLC-97TM1; first compound 0.08 µM) was 0.17. The relative viability (LCLC-97TM1; first compound 0.8 µM) was 0.166, the relative viability (LCLC-97TM1; first compound 2.53 µM) was 0.163 and the relative viability (LCLC-97TM1; first compound 8 µM) was 0.182. For the same molecule, the relative viability (HARA; first compound 0.08 µM) was 0.292, the relative viability (HARA; first compound 0.8 µM) was 0.279 and the relative viability (HARA; first compound 2.53 µM) was 0.256. It also gave a relative viability (HARA; first compound 8 µM) of 0.208, a relative viability (NCI-H23; first compound 0.08 µM) of 0.786 and a relative viability (NCI-H23; first compound 0.8 µM) of 0.675. It also gave a relative viability (NCI-H23; first compound 2.53 µM) of 0.589, a relative viability (NCI-H23; first compound 8 µM) of 0.665 and a relative viability (EMC-BAC-2; first compound 0.08 µM) of 0.472. For the same molecule, the relative viability (EMC-BAC-2; first compound 0.8 µM) was 0.53, the relative viability (EMC-BAC-2; first compound 2.53 µM) was 0.399 and the relative viability (EMC-BAC-2; first compound 8 µM) was 0.49. It also gave a relative viability (NCI-H1944; first compound 0.08 µM) of 0.545, a relative viability (NCI-H1944; first compound 0.8 µM) of 0.754 and a relative viability (NCI-H1944; first compound 2.53 µM) of 0.578. For the same molecule, the relative viability (NCI-H1944; first compound 8 µM) was 0.643, the relative viability (PC-3 [JPC-3]; first compound 0.08 µM) was 1.04 and the relative viability (PC-3 [JPC-3]; first compound 0.8 µM) was 1.17. For the same molecule, the relative viability (PC-3 [JPC-3]; first compound 2.53 µM) was 1.07, the relative viability (PC-3 [JPC-3]; first compound 8 µM) was 0.634 and the relative viability (NCI-H1792; first compound 0.08 µM) was 0.815. It also gave a relative viability (NCI-H1792; first compound 0.8 µM) of 0.817, a relative viability (NCI-H1792; first compound 2.53 µM) of 1.06 and a relative viability (NCI-H1792; first compound 8 µM) of 0.382. The relative viability (NCI-H441; first compound 0.08 µM) was 0.255, the relative viability (NCI-H441; first compound 0.8 µM) was 0.261 and the relative viability (NCI-H441; first compound 2.53 µM) was 0.301. It also gave a relative viability (NCI-H441; first compound 8 µM) of 0.274, a relative viability (NCI-H1793; first compound 0.08 µM) of 0.82 and a relative viability (NCI-H1793; first compound 0.8 µM) of 1.06. For the same molecule, the relative viability (NCI-H1793; first compound 2.53 µM) was 1.18, the relative viability (NCI-H1793; first compound 8 µM) was 0.37 and the relative viability (NCI-H1437; first compound 0.08 µM) was 0.339. For the same molecule, the relative viability (NCI-H1437; first compound 0.8 µM) was 0.306, the relative viability (NCI-H1437; first compound 2.53 µM) was 0.317 and the relative viability (NCI-H1437; first compound 8 µM) was 0.215. For the same molecule, the relative viability (NCI-H322M; first compound 0.08 µM) was 0.598, the relative viability (NCI-H322M; first compound 0.8 µM) was 0.625 and the relative viability (NCI-H322M; first compound 2.53 µM) was 0.646. It also gave a relative viability (NCI-H322M; first compound 8 µM) of 0.667, a relative viability (NCI-H522; first compound 0.08 µM) of 0.901 and a relative viability (NCI-H522; first compound 0.8 µM) of 1.06. For the same molecule, the relative viability (NCI-H522; first compound 2.53 µM) was 0.957, the relative viability (NCI-H522; first compound 8 µM) was 0.837 and the relative viability (SW 900; first compound 0.08 µM) was 0.495. For the same molecule, the relative viability (SW 900; first compound 0.8 µM) was 0.527, the relative viability (SW 900; first compound 2.53 µM) was 0.52 and the relative viability (SW 900; first compound 8 µM) was 0.473. It also gave a relative viability (NCI-H1915; first compound 0.08 µM) of 0.518, a relative viability (NCI-H1915; first compound 0.8 µM) of 0.488 and a relative viability (NCI-H1915; first compound 2.53 µM) of 0.558. For the same molecule, the relative viability (NCI-H1915; first compound 8 µM) was 0.55, the relative viability (HCC-827; first compound 0.08 µM) was 0.26 and the relative viability (HCC-827; first compound 0.8 µM) was 0.284. It also gave a relative viability (HCC-827; first compound 2.53 µM) of 0.285, a relative viability (HCC-827; first compound 8 µM) of 0.259 and a relative viability (HCC-15; first compound 0.08 µM) of 0.226. For the same molecule, the relative viability (HCC-15; first compound 0.8 µM) was 0.24, the relative viability (HCC-15; first compound 2.53 µM) was 0.233 and the relative viability (HCC-15; first compound 8 µM) was 0.207. The relative viability (ChaGo-K-1; first compound 0.08 µM) was 0.264, the relative viability (ChaGo-K-1; first compound 0.8 µM) was 0.258 and the relative viability (ChaGo-K-1; first compound 2.53 µM) was 0.249. The relative viability (ChaGo-K-1; first compound 8 µM) was 0.251, the relative viability (LU99A; first compound 0.08 µM) was 0.182 and the relative viability (LU99A; first compound 0.8 µM) was 0.178. For the same molecule, the relative viability (LU99A; first compound 2.53 µM) was 0.15, the relative viability (LU99A; first compound 8 µM) was 0.192 and the relative viability (EKVX; first compound 0.08 µM) was 0.406. It also gave a relative viability (EKVX; first compound 0.8 µM) of 0.465, a relative viability (EKVX; first compound 2.53 µM) of 0.368 and a relative viability (EKVX; first compound 8 µM) of 0.407. The relative viability (LC-2-ad; first compound 0.08 µM) was 0.274, the relative viability (LC-2-ad; first compound 0.8 µM) was 0.282 and the relative viability (LC-2-ad; first compound 2.53 µM) was 0.257. The relative viability (LC-2-ad; first compound 8 µM) was 0.288, the relative viability (H3255; first compound 0.08 µM) was 0.566 and the relative viability (H3255; first compound 0.8 µM) was 0.616. It also gave a relative viability (H3255; first compound 2.53 µM) of 0.597, a relative viability (H3255; first compound 8 µM) of 0.585 and a relative viability (SK-LU-1; first compound 0.08 µM) of 0.975. It also gave a relative viability (SK-LU-1; first compound 0.8 µM) of 1.13, a relative viability (SK-LU-1; first compound 2.53 µM) of 0.962 and a relative viability (SK-LU-1; first compound 8 µM) of 0.988. For the same molecule, the relative viability (NCI-H661; first compound 0.08 µM) was 0.953, the relative viability (NCI-H661; first compound 0.8 µM) was 0.936 and the relative viability (NCI-H661; first compound 2.53 µM) was 0.886. It also gave a relative viability (NCI-H661; first compound 8 µM) of 0.896.
